Values quoted from earlier work as cited in PMC13005129 (Biochemistry, 2025).
Starred links: 1 amine or outer side, 2 acyl side, 3 side chain; linkers in the order of their positions; H or OH if unused. Positions of bridges follow the written chain, without caps; N, C: chain ends. Non-standard residues stand in square brackets, D forms with d. Residues, ends and D or L forms follow the SMILES beside them. *: point of attachment. Leu(3R-OH,Nα-propionyl) = CCC(=O)N[C@H](C(=O)*)[C@H](O)C(C)C; X1 = CC(C)[C@@H](O[*:3])[C@H](N[*:1])C(=O)[*:2]; NMeT = CN[C@H](C(=O)O)[C@@H](C)O; dPhLac = O=C(O)[C@H](O)Cc1ccccc1; NMeA = CN[C@@H](C)C(=O)O; NMeDha = C=C(NC)C(=O)O

How the values were obtained:
Gq/11 = conditions: cultured cells
[1] = tested on: M3Rs expressed by immortalized human airway smooth muscle (ASM) cells

| SMILES | block of M3R-mediated increases in [Ca2+]i (Gq/11) | change in [Ca2+]i on M3R activation [1] |
| --- | --- | --- |
| C=C1C(=O)N[C@@H](C)C(=O)N(C)[C@@H](C)C(=O)N[C@@H]([C@H](OC(=O)[C@@H](NC(=O)CC)[C@H](O)C(C)C)C(C)C)C(=O)N(C)[C@@H]([C@@H](C)OC)C(=O)O[C@H](C(C)C)[C@H](NC(C)=O)C(=O)O[C@H](Cc2ccccc2)C(=O)N1C [FR900359] (Ac-[X1][dPhLac][NMeDha]A[NMeA][X1](Leu(3R-OH,Nα-propionyl))[NMeT](Me); ester 1-C) | can be effectively blocked |  |
| CC(=O)OC(C)C[N+](C)(C)C (centres unmarked) [methacholine] |  | leads to an increase in [Ca^2+]i |
